Measurements as given in ChEMBL document CHEMBL1143348, “Design, synthesis, and cytoprotective effect of 2-aminothiazole analogues as potent poly(ADP-ribose) polymerase-1 inhibitors” (J Med Chem, 2009).

Columns and labels:
PC-12 [1] = test: Cytoprotective activity against oxygen-glucose deprivation-induced apoptosis in rat PC12 assessed as damaged cells at 3 uM by flow cytometry using FITC-conjugated annexin V and propidium iodide staining relative to control; assay type: functional
PC-12 [2] = test: Cytoprotective activity against H2O2-induced cell death in rat PC12 cells by MTT assay after 6 hrs; assay type: functional, cell-based; settings: PC-12, 6 h
PC-12 [3] = test: Cytoprotective activity against oxygen-glucose deprivation-induced apoptosis in rat PC12 assessed as total apoptotic cells at 3 uM by flow cytometry using FITC-conjugated annexin V and propidium iodide staining relative to control; assay type: functional
PC-12 [4] = test: Cytoprotective activity in rat PC12 cells assessed as reduction in oxygen-glucose deprivation-induced LDH release at 3 uM; assay type: functional; parameters: scale not given: the % may be the effect or the level left
PC-12 [5] = test: Cytoprotective activity against oxygen-glucose deprivation-induced apoptosis in rat PC12 assessed as early apoptotic cells at 3 uM by flow cytometry using FITC-conjugated annexin V and propidium iodide staining relative to control; assay type: functional
PC-12 [6] = test: Cytoprotective activity against oxygen-glucose deprivation-induced apoptosis in rat PC12 assessed as late apoptotic cells at 3 uM by flow cytometry using FITC-conjugated annexin V and propidium iodide staining relative to control; assay type: functional
PC-12 [7] = test: Cytoprotective activity against oxygen-glucose deprivation-induced apoptosis in rat PC12 assessed as live cells at 3 uM by flow cytometry using FITC-conjugated annexin V and propidium iodide staining relative to control; assay type: functional
[8] = biological target: Poly [ADP-ribose] polymerase 1 (Homo sapiens, UniProt P09874)
Chain of Poly [ADP-ribose] polymerase 1 (P09874 whole entry): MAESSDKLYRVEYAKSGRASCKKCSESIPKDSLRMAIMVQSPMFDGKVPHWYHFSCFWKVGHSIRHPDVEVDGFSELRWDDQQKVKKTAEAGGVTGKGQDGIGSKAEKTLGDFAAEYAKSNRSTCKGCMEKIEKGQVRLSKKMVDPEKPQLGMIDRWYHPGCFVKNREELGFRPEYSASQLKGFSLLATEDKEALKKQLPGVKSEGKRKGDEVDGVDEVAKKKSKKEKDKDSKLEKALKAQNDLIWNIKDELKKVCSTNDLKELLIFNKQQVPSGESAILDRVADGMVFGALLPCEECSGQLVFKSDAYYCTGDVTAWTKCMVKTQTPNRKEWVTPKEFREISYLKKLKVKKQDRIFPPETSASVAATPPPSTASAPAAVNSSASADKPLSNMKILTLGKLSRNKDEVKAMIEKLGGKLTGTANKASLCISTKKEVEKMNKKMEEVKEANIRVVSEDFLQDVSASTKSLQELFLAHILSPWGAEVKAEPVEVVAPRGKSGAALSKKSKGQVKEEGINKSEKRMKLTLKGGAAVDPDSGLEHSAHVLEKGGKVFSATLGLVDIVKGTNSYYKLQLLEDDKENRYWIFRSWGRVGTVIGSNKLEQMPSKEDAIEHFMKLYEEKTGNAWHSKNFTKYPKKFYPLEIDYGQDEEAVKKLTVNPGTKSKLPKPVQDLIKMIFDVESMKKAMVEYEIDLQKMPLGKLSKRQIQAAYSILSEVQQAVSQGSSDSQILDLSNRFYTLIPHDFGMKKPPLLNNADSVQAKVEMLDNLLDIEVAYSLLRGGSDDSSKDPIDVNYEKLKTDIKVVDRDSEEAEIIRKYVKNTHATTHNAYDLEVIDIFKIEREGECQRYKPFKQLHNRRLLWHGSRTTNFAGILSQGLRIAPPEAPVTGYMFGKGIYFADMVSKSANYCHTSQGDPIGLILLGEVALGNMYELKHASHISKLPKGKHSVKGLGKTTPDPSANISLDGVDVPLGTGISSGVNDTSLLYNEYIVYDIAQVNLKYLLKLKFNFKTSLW
Description: Inhibition of human recombinant PARP1

PC-12 [9] = test: Cytoprotective activity against oxygen-glucose deprivation-induced cell death in rat PC12 cells by MTT assay; assay type: functional, cell-based

| Compound | EC50 (PC-12 [2]) [nM] | IC50 [8] [nM] | EC50 (PC-12 [9]) [nM] | other results |
| --- | --- | --- | --- | --- |
| CCOC(=O)CCC(=O)Nc1nc(-c2ccccc2)cs1 | 537 | 240 | 143 | Activity (PC-12 [1]): 5%; Activity (PC-12 [3]): 70.7%; Activity (PC-12 [4]): 34.6%; Activity (PC-12 [5]): 8.5%; Activity (PC-12 [6]): 5.9%; Activity (PC-12 [7]): 80.6% |
| COc1cc(/C=C/C(=O)Nc2nc3c(s2)CCCC3)cc(OC)c1 | 2090 | 9330 | 1040 | – |
| Nc1ncnc2c1ncn2[C@@H]1O[C@H](COCNC(=O)CCC(=O)Nc2cccc3c2CNC3=O)[C@@H](O)[C@H]1O | – | 100 | – | – |
| O=C1NCCn2c(CN3CCCCC3)cc3cccc1c32 | – | 109 | – | – |
| O=c1[nH]c2ccc(CCCN3CC=C(c4ccccc4)CC3)cc2c2ccccc12 | – | 119 | – | – |
| O=c1[nH]c(CCCN2CC=C(c3ccccc3)CC2)nc2cccc(Cl)c12 | – | 682 | – | – |
| Cc1sc(-c2ccccc2)nc1C(=O)Nc1cccc(Cc2n[nH]c(=O)c3ccccc23)c1 | – | 27 | – | – |
| O=C(CCn1c2c(c(=O)[nH]c1=O)CSCC2)NCC(=O)c1ccc(-c2ccnnc2)cc1 | – | 25 | – | – |
| O=c1[nH]c(CCCN2CC=C(c3ccccc3)CC2)nc2c1CCC2 | – | 249 | – | – |
| CCOC(=O)c1ccc(CCc2nc3cccc4c3n2CCNC4=O)cc1 | – | 97 | – | – |
| O=C(Nc1nc(-c2ccccc2)cs1)c1ccncc1 | 1550 | 753 | 191 | Activity (PC-12 [1]): 6%; Activity (PC-12 [3]): 45.1%; Activity (PC-12 [4]): 20.1%; Activity (PC-12 [5]): 8.6%; Activity (PC-12 [6]): 11.6%; Activity (PC-12 [7]): 73.8% |
| CC1CCc2nc(CCCN3CC=C(c4ccccc4)CC3)[nH]c(=O)c2C1 (configuration not stated) | – | 274 | – | – |
| O=c1[nH]c2ccc(CCN3CC=C(c4ccccc4)CC3)cc2c2ccccc12 | – | 46 | – | – |
| O=C(/C=C/c1ccccc1)Nc1nc(-c2ccccc2)cs1 | 129 | 224 | 559 | Activity (PC-12 [1]): 3.9%; Activity (PC-12 [3]): 64.4%; Activity (PC-12 [4]): 33.1%; Activity (PC-12 [5]): 8.4%; Activity (PC-12 [6]): 3.7%; Activity (PC-12 [7]): 84% |
| CCOc1ccc(-c2csc(/N=C/c3c[nH]c4ccccc34)n2)c(OCC)c1 | 324 | 240 | 361 | Activity (PC-12 [4]): 28.4% |
| COc1cc(/C=C/C(=O)Nc2nc(-c3ccccc3)cs2)cc(OC)c1 | 1120 | 4530 | 527 | Activity (PC-12 [4]): 24% |
| CN(C)CCCOc1ccc(-c2nc3cccc4c3n2CCNC4=O)cc1 | – | 63 | – | – |
| CCOC(=O)CCC(=O)Nc1nc2c(s1)CCCC2 | > 3000 | 12400 | 961 | – |
